Ki data for 23 compounds are collected here from US10947226B2, “Bicyclic pyridone lactams and methods of use thereof” (Genentech, Inc., priority 2016, dated 2021).

The assay has as its target human RIP1 kinase domain (2-375) (Homo sapiens (Human), UniProt Q13546). The assay can be described thus: RIP1 kinase inhibition assay (biochemical, Transcreener ADP fluorescence polarization). The note with it: Ki app (Morrison tight-binding fit); 50 nM enzyme, 50 μM ATP, 2 hours incubation, pH 7.5. On the procedure:
RIP1 Kinase Inhibition Assays (Biochemical Assay)
The compounds of the present invention were tested for their capacity to inhibit RIP1K activity as described below.
Enzyme assay: The ability of the receptor interacting protein kinase (RIPK1) to catalyze the hydrolysis of adenosine-5′-triphosphate (ATP) is monitored using the Transcreener ADP (adenosine-5′-diphosphate) assay (BellBrook Labs). Purified human RIP1 kinase domain (2-375) (50 nM) derived from a baculovirus-infected insect cell expression system is incubated with test compounds for 2 hours in 50 mM Hepes buffer (pH 7.5) containing 30 mM MgCl2, 1 mM dithiothreitol, 50 μM ATP, 0.002% Brij-35, and 0.5% dimethyl sulfoxide (DMSO). Reactions are quenched by the addition of 1× Bell Brooks Stop buffer B (20 mM Hepes (ph 7.5), 40 mM ethylenediaminetetraacetic acid and 0.02% Brij-35) containing an additional 12 mM EDTA and 55 μg/mL ADP2 antibody and 4 nM ADP-AlexaFluor® 633 tracer. The tracer bound to the antibody is displaced by the ADP generated during the RIP1K reaction, which causes a decrease in fluorescence polarization that is measured by laser excitation at 633 nm with a FP microplate reader M1000. Fractional activity was plotted against test article concentration. Using Genedata Screener software (Genedata; Basel, Switzerland), the data were fit to the tight-binding apparent inhibition constant (Ki^app) Morrison equation [Williams, J. W. and Morrison, J. F. (1979) The kinetics of reversible tight-binding inhibition. Methods Enzymol 63: 437-67]. The following equation was used to calculate fractional activity and Ki^app: […]
where [E]T and [I]T are the total concentrations of active enzyme and test article, respectively. […]

human RIP1 kinase domain (2-375), sequence (Q13546 2-375): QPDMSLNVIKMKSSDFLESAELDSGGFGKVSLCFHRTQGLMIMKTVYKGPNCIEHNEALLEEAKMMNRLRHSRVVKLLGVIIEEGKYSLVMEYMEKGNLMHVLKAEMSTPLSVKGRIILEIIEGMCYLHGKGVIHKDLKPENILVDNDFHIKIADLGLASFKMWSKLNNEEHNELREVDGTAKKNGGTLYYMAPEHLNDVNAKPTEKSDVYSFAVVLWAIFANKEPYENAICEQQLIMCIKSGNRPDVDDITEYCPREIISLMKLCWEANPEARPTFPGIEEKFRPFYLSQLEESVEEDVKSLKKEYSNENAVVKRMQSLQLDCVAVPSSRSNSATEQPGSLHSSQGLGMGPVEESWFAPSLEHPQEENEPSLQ

For `CN1C(=O)[C@H](NC(=O)c2ncn(Cc3ccccc3F)n2)CCc2cn(CC3CC3)c(=O)cc21` (single isomer, unassigned) [Example 17], the Ki was found to be 6900 nM.
The compound `CN1C(=O)[C@@H](NC(=O)c2ncn(Cc3ccccc3F)n2)CCc2cc(=O)n(C)cc21` (single isomer, unassigned) [Example 9] registered a Ki of 111 nM.
The compound `CN1C(=O)[C@H](NC(=O)c2ncn(Cc3ccccc3)n2)CCc2c1ccc(=O)n2C` (single isomer, unassigned) [Example 23] displayed a Ki of more than 10000 nM.
Next, `CN1C(=O)[C@@H](NC(=O)c2ncn(Cc3ccccc3F)n2)CCc2cn(CC3CC3)c(=O)cc21` (single isomer, unassigned) [Example 15]: 39 nM; `CN1C(=O)[C@@H](NC(=O)c2ncn(Cc3ccccc3F)n2)CCn2c1cccc2=O` (single isomer, unassigned) [Example 4]: 290 nM; `CN1C(=O)[C@@H](NC(=O)c2ncn(Cc3ccccc3F)n2)CCc2c1ccc(=O)n2C` (single isomer, unassigned) [Example 2]: 156 nM.
Consider `CN1C(=O)[C@@H](NC(=O)c2ncn(Cc3ccccc3)n2)CCc2cn(C)c(=O)cc21` (single isomer, unassigned) [Example 5], for which the Ki stood at 79 nM.
Next, `CN1C(=O)[C@@H](NC(=O)c2nc3n(n2)[C@H](c2ccccc2F)CC3)CCc2cc(=O)n(C)cc21` (single isomer, unassigned) [Example 11]: 231 nM; `CN1C(=O)[C@@H](NC(=O)c2ncn(Cc3ccccc3)n2)CCn2c1cccc2=O` (single isomer, unassigned) [Example 3]: 489 nM; `CN1C(=O)[C@H](NC(=O)c2ncn(Cc3ccccc3F)n2)CCc2c1ccc(=O)n2C` (single isomer, unassigned) [Example 22]: more than 10000 nM.
Next, `CN1C(=O)[C@@H](NC(=O)c2ncn(Cc3ccccc3F)n2)CCc2cn(C)c(=O)cc21` (single isomer, unassigned) [Example 6]: 49 nM.
Consider `CN1C(=O)[C@@H](NC(=O)c2nc3n(n2)[C@H](c2ccccc2F)CC3)CCc2cn(CC3CC3)c(=O)cc21` (single isomer, unassigned) [Example 14], for which the Ki is 56 nM.
In the case of `CN1C(=O)[C@@H](NC(=O)c2ncn(Cc3ccccc3)n2)CCc2cc(=O)n(C)cc21` (single isomer, unassigned) [Example 7], the Ki turned out to be 173 nM.
`CN1C(=O)[C@H](NC(=O)c2nc3n(n2)[C@H](c2ccccc2F)CC3)CCc2cc(=O)n(C)cc21` (single isomer, unassigned) [Example 12] gave a Ki of more than 10000 nM.
The compound `CCn1cc2c(cc1=O)N(C)C(=O)[C@H](NC(=O)c1nc3n(n1)[C@H](c1ccccc1F)CC3)CC2` (single isomer, unassigned) [Example 20] displayed a Ki of more than 10000 nM.
In the case of `CN1C(=O)[C@H](NC(=O)c2ncn(Cc3ccccc3)n2)CCc2cc(=O)n(C)cc21` (single isomer, unassigned) [Example 8], the Ki is more than 10000 nM.
`CCn1cc2c(cc1=O)N(C)C(=O)[C@@H](NC(=O)c1nc3n(n1)[C@H](c1ccccc1F)CC3)CC2` (single isomer, unassigned) [Example 18] had a Ki of 110 nM.
The compound `CN1C(=O)[C@@H](NC(=O)c2ncn(Cc3ccccc3)n2)CCc2c1ccc(=O)n2C` (single isomer, unassigned) [Example 1] had a Ki of 233 nM.
The compound `CCn1cc2c(cc1=O)N(C)C(=O)[C@H](NC(=O)c1ncn(Cc3ccccc3F)n1)CC2` (single isomer, unassigned) [Example 21] yielded a Ki of more than 10000 nM.
Turning to `CCn1cc2c(cc1=O)N(C)C(=O)[C@@H](NC(=O)c1ncn(Cc3ccccc3F)n1)CC2` (single isomer, unassigned) [Example 19], the Ki was determined as 110 nM.
With `CN1C(=O)[C@@H](NC(=O)c2nc3n(n2)[C@H](c2ccccc2F)CC3)CCc2cn(C)c(=O)cc21` [Example 13, (5S)-5-(2-fluorophenyl)-N-[(3S)-1,7-dimethyl-2,8-dioxo-4,5-dihydro-3H-pyrido[4,3-b]azepin-3-yl]-6,7-dihydro-5H-pyrrolo[1,2-b][1,2,4]triazole-2-carboxamide], the Ki was determined as 81.1 nM.
In turn, `CN1C(=O)[C@H](NC(=O)c2ncn(Cc3ccccc3F)n2)CCc2cc(=O)n(C)cc21` (single isomer, unassigned) [Example 10] displayed a Ki of more than 10000 nM.
Next, `CN1C(=O)[C@H](NC(=O)c2nc3n(n2)[C@H](c2ccccc2F)CC3)CCc2cn(CC3CC3)c(=O)cc21` (single isomer, unassigned) [Example 16]: 6900 nM.
